Measurements published in a melting point compilation (Tetko et al.; mined from patent text by program, amines drawn as free bases though some values may be those of a salt).

SMILES	melting point
CC(C)Oc1ccc(CCN2CCC3(CC2)CNC(=O)CO3)cc1	135 to 137 °C
CCOCc1nc2c(N)nc3c(c2n1CCCNS(C)(=O)=O)CCCC3	212 to 214 °C
CS(=O)(=O)N1CCN([C@@H](CNCS(=O)(=O)c2ccc(OCc3ccccc3)cc2)C(=O)NO)CC1	110 °C
N#Cc1ccc(F)c(C(c2cc(N)ncc2Cl)S(=O)(=O)c2ccc(Cl)cc2)c1 (stereo not drawn)	> 220 °C
Cc1c(C#N)c(=O)n(-c2cc(C(=O)OC(C)C)c(Cl)cc2F)c(=O)n1C	171 to 173 °C
COc1ccc(Nc2nc(Nc3cc4c(cc3OC)CCN(CC(=O)N(C)C)CC4)ncc2Cl)c(OC)n1	67 to 76 °C
CCCn1cc2c(n1)c(N)nc1ccccc12	225 to 227 °C
Cc1ccsc1C(=O)Cc1ccc(Cl)cc1[N+](=O)[O-]	105 to 107 °C
O=C1N(Cc2ccc(O)cc2)c2ccccc2C12COc1cc3c(cc12)OCCO3 (stereo not drawn)	243 to 244 °C
COc1ccc2cc(Br)ccc2n1	93 to 96 °C
C=CCS(=O)c1c(O)cc(C)oc1=O (stereo not drawn)	111 to 112 °C
CNC(=O)C(=NOC)c1ccccc1ON=C(C)c1cccc(C)c1	109 to 111 °C
Cc1ccc(C=NNc2nsc3ccccc23)cc1	294 °C
CCOC(=O)c1cc(=O)c2ccc3nc(C(=O)OC)cc(Cl)c3c2o1	209 °C
CC(C)c1ccc(Oc2ccc(C(=O)C=CC(=O)O)cc2)cc1	133 to 134 °C
CN(C)C=Cc1ncc([N+](=O)[O-])n1CCOC(=O)c1ccccc1	153 to 154 °C
CN1C(=O)c2ccc(NCC(O)CCl)cc2C1=O (stereo not drawn)	136 to 138 °C
Cc1cc2cccc(N)c2cn1	175 °C
CC(C)(O)Cn1c(CCO)nc2c(N)nc3cccnc3c21	194 to 195 °C
N#Cc1cc(-c2ccc3c(c2)C2(CCCC2)C(=O)N3)ccc1F	264 to 266 °C
CC(C)CN1C(=O)N(C)C2(NC(=O)NC2=O)c2cc(Cl)ccc21 (stereo not drawn)	118 °C
COC(=O)C(C)Oc1cc(Cl)ccc1COc1ccc(-c2nn(C)c(OC(F)F)c2Cl)cc1 (stereo not drawn)	61 to 64 °C
CCOc1ccccc1C=[N+]([O-])C(C)C	59.4 °C
CCCCC(COc1ccc(-c2cccc(CC#N)c2)cc1)N(O)C=O (stereo not drawn)	99 to 101 °C
N#Cc1ccc(-c2ccc3c(c2)C2(CCCCC2)C(=O)N3)cc1F	258 to 260 °C

SMILES	melting point
Cc1ccc2c(n1)Oc1ccc(C(C)C(=O)OCCC(N)=O)cc1C2 (stereo not drawn)	143 to 145 °C
CC1Oc2cc(F)ccc2NC1=O (stereo not drawn)	166 to 168 °C
CC1(C)Cc2cccc(OCCCBr)c2O1	54 to 56 °C
CC(C#N)(CO)NS(=O)(=O)Cc1ccccc1 (stereo not drawn)	153 to 155 °C
Cc1c(C(=O)Nc2ccc(OCC(C)(C)C)c(C#N)c2)cnn1C(C)(C)C	143 to 144 °C
COCc1ncnc(O)c1C	139 to 140 °C
CCCNC(=O)CCn1ccc(=O)c(OCc2ccccc2)c1C	146 to 147 °C
CC(C)NC(=O)c1c(NC(=O)c2cc(C(F)(F)F)nn2-c2ncccc2Cl)ccc2cccnc12	225 to 226 °C
CCc1ccc2c(c1)c1cc(OC)cc3c(=O)c(Cc4cccnc4)cn2c31	109 to 110 °C
CN(C(=O)C(C)(C)N1C(=O)c2ccccc2C1=O)C(c1ccc(F)cc1)c1ccc(F)cc1	169 to 171 °C
COc1ccc(N2C(=O)N(c3ccccc3)c3nc(Nc4ccccc4)ncc3C2C)cc1 (stereo not drawn)	222 to 234 °C
O=C(CCC1CCC(=O)O1)NCCc1ccccc1 (stereo not drawn)	86 to 87 °C
CCCCCC(C)C(C)c1cc(O)c2c(c1)OC(C)(C)C1=C2CN(CC(=O)Nc2ccc(Cl)cc2)CC1 (stereo not drawn)	159 to 160 °C
C/C(=C\C(C)O)c1ccc(C2CCCCC2)cc1 (stereo not drawn)	67.5 to 68 °C
COC(=O)c1cc(-c2nc(CCl)c(C)o2)ccc1C	89 to 90 °C
CCOC(=O)CCCn1nnnc1-c1ccc2c(c1)[C@@H](Nc1ccnc(SC)n1)[C@](C)(O)C(C)(C)O2	115 to 130 °C
O=C(O)Cc1c(Cl)c(F)nc(F)c1Cl	157 to 159 °C
CN(C)C1CCN(c2cc3c(Cl)cccc3c(=O)[nH]2)CC1	210 to 211 °C
COC(=O)C(=O)c1c[nH]c2ccccc12	226 to 228 °C
Cc1ccc(Oc2ccc(S(=O)(=O)C[C@H]([C@H]3COC(C)(C)O3)N(O)C=O)cc2)cc1	156 to 158 °C
CCCCNS(=O)(=O)C[C@@H](O)C(O)[C@@H](CC1CCCCC1)NC(=O)[C@H](CC(C)C)NC(=O)CCc1ccccc1 (relative stereo)	63 to 73 °C
O=C1CC2CCc3ccc(F)cc3C2=NN1c1ccc(OCC2CO2)cc1 (stereo not drawn)	128 to 130 °C
CCCCc1ncc(/C=C2\C(=O)NC(=O)N2Cc2cccs2)n1Cc1ccc(C(=O)O)cc1	297 to 299 °C
Nc1ccc(-c2noc(-c3cnn4c(C(F)(F)F)cc(-c5ccc(C(F)(F)F)cc5)nc34)n2)cn1	257 °C
O=C(COC(=O)c1nocc1Br)NCCO[N+](=O)[O-]	98 to 99 °C

SMILES	melting point
CC1(C)OCC(CNc2c([N+](=O)[O-])cnc3cc(OCc4ccccc4)ccc23)O1 (stereo not drawn)	154 to 155 °C
O=C1C2C3COC2(C3)c2cccnc2N1c1ccccc1 (stereo not drawn)	198 to 200 °C
CS(=O)(=O)c1ccc(C(Cc2cccc(F)c2)C(=O)Nc2cnc(CO)cn2)cc1 (stereo not drawn)	82.8 to 98.7 °C
Cc1ccc(S(=O)(=O)NCCN(CCNS(=O)(=O)c2ccc(C)cc2)Cc2ccccc2)cc1	87 to 91 °C
COC(=O)c1c(S(=O)(=O)NC(=O)Nc2nc(OC)cc(OC)n2)ccn1C	182 to 186 °C
COc1cccc(NC(=O)O[C@@H]2CN=C(c3ccccc3)O[C@H]2c2ccccc2)c1 (racemic)	110 °C
COc1ccccc1N1CCN(CCCNC(=O)c2cc(OC(C)=O)cc3c(=O)c(C)c(-c4ccccc4)oc23)CC1	148 to 149 °C
O=C(NCC12CC3CC(CC(C3)C1)C2)c1c(Cl)ccc2nc(N3CCC(O)(C(=O)O)CC3)ccc12	200 to 204 °C
Cc1cc(-n2ccnc2)c2cccc(OCc3c(Cl)ccc(S(=O)(=O)N4CCCC4C(=O)NCC4CCN(C(=O)CC(=O)OC(C)(C)C)CC4)c3Cl)c2n1 (stereo not drawn)	101 °C
O=C(O)c1cccc(OCc2ccc3ccccc3n2)c1	178 to 182 °C
O=C(Nc1nccs1)c1c(C(O)CO)nc2c(C(F)(F)F)cccc2c1O (stereo not drawn)	255 °C
C1=C2NCCCN2C(c2ccccc2)c2ccccc2C1 (stereo not drawn)	138 to 141 °C
CC(=O)N1CCN(c2ccc(NS(C)(=O)=O)c(C)c2)CC1	153 to 154 °C
N#CSc1ccc(N)c(C(F)(F)F)c1	52 to 55 °C
COc1ccc(Cl)cc1NC(=NN)c1cc(C(F)(F)F)cc(C(F)(F)F)c1	117 to 120 °C
CC(C)c1ccnc(C(C)C)c1N	35 to 39 °C
CC(C)(C)C(=O)OCOC(=O)C1N2C(=O)C(NC(=O)C(N)c3ccccc3)C2SC1(C)C (stereo not drawn)	114 to 116 °C
O=C(NCc1ccc(Cl)cc1)c1cnc2c(F)cc(/C=C\CO)cc2c1O	234 to 235 °C
Cc1n[nH]c(=O)c(-c2c(F)cc(F)cc2F)c1Cc1ccc(Cl)cc1	212 to 215 °C
Clc1ccc(Nc2cncc(-n3cccn3)n2)cc1	155 to 157 °C
CC(C)C[C@H](N)[C@@H](O)CCS(=O)(=O)CCc1ccccc1	153 to 154 °C
COc1ccc(CCNCC(O)c2ccc(OCc3ccccc3)c(OCc3ccccc3)c2)cc1OC (stereo not drawn)	79 to 81 °C
O=C(O)Cc1ccc(C(=O)c2ccc(Cl)cc2)s1	165 °C
Clc1cc(Nc2cc(C3CC3)n[nH]2)nc(Sc2ccc3ccccc3c2)n1	118 to 120 °C
CNC(=O)CS(=O)(=O)Nc1c(F)cccc1Oc1nc(OC)cc(OC)n1	193 to 198 °C

SMILES	melting point
COc1ccc(-c2oc(C(F)(F)F)nc2-c2ccc(S(N)(=O)=O)cc2)cc1F	150 to 151 °C
COc1ccc(C2=NN(C(C)(C)C)C(=O)[C@H]3CCCC[C@@H]23)cc1OC (relative stereo)	99 to 101 °C
CCC(CC)CNC(=O)c1ccc2cccc(Cc3ccc(C(=O)OC)cc3OC)c2c1	130 °C
Nc1nc(Cl)c2[nH]c(=O)n(CCCCO)c2n1	222 to 225 °C
COC(=O)Nc1nc2ccccc2n1CCCN1CCN(C(c2ccccc2)c2ccccc2)CC1	138 °C
Cc1c(NC(=O)c2ccc(-c3cc4ccccc4o3)cc2)ccc2cc(CN3CCCC3)cnc12	217 to 218 °C
O=C(NCc1ccccc1-c1ccccc1C(=O)NCCc1ccccn1)OCc1ccccc1	140 °C
CC(C)C(NC(=O)CCc1cccnc1)C(=O)NC(Cc1ccccc1)C(O)C(O)C(Cc1ccccc1)NC(=O)C(NC(=O)CCc1cccnc1)C(C)C (stereo not drawn)	260 to 263 °C
CC(=O)c1cc2c(c(C)c1O)OC(C)(C)CC2C (stereo not drawn)	96 to 97 °C
Cc1cc(Cl)c2ccc(Cl)cc2c1CCC=O	104 to 106 °C
Cc1c2c(c(C(O)c3ccccn3)c(C)c1NC(=O)CC(C)(C)C)OC(C)(C)C2 (stereo not drawn)	176 to 177 °C
Nc1nc2[nH]c(CCCCC#Cc3ccc(C(=O)N[C@@H](CCC(=O)O)C(=O)O)s3)cc2c(=O)[nH]1	197 to 198 °C
CS(=O)(=O)N1CC(CN2CCCC2)Cc2ccccc21 (stereo not drawn)	72 to 73 °C
O=C(O)C1=CC(CF)(CF)Oc2ccc(Cl)cc21	151 to 152 °C
CS(=O)(=O)c1ccc(-c2sc(-c3ccccc3Cl)nc2-c2ccccc2)cc1	192 to 195 °C
CSC1=NS(=O)(=O)CCCS1	91 °C
CS(=O)(=O)NCCCCn1c(CCCOc2ccccc2)nc2c(N)nc3ccccc3c21	156 to 157 °C
Cn1nnc2ccc3nc(O)c(O)nc3c21	> 300 °C
CC(=NNC(=O)c1cccc(C)c1)c1cc(Cl)cc(Cl)c1O	221 to 223 °C
COCCNC(NC(=O)c1cccnc1)C(Cl)(Cl)Cl (stereo not drawn)	75 to 77 °C
Clc1ccc(C=Cc2ncon2)cc1	134 °C
COC(=O)CCCCCCCCCCNC(=O)C(CSC(C)=O)Cc1ccccc1 (stereo not drawn)	64 to 66 °C
Fc1ccc(-c2nc(-c3ccc[nH]3)[nH]c2-c2ccc(F)cc2)cc1	276 °C
